Measurements reported in PubChem BioAssay (NCI).
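A five-concentration, 48-hour dose response in 96-well plates underlies each endpoint, interpolated linearly between surrounding concentrations. Abbreviation: GI50, concentration required for 50% inhibition of growth. TGI: total growth inhibition.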

Columns and labels:
Experiment in all cases: NCI-60 cell line screen, 48 h
786-0 renal = system: 786-0 renal
A498 renal = system: A498 renal
A549 NSCLC = system: A549 NSCLC
BT-549 breast = system: BT-549 breast
CCRF-CEM leukemia = system: CCRF-CEM leukemia
COLO 205 colon = system: COLO 205 colon
DU-145 prostate = system: DU-145 prostate
EKVX NSCLC = system: EKVX NSCLC
HCC-2998 colon = system: HCC-2998 colon
HCT-116 colon = system: HCT-116 colon
HCT-15 colon = system: HCT-15 colon
HL-60(TB) leukemia = system: HL-60(TB) leukemia
HOP-62 NSCLC = system: HOP-62 NSCLC
HOP-92 NSCLC = system: HOP-92 NSCLC
HS 578T breast = system: HS 578T breast
HT29 colon = system: HT29 colon
IGROV1 ovarian = system: IGROV1 ovarian
K-562 leukemia = system: K-562 leukemia
KM12 colon = system: KM12 colon
LOX IMVI melanoma = system: LOX IMVI melanoma
M14 melanoma = system: M14 melanoma
MALME-3M melanoma = system: MALME-3M melanoma
MCF7 breast = system: MCF7 breast
MDA-MB-231 breast = system: MDA-MB-231 breast
MDA-MB-435 = system: MDA-MB-435
MOLT-4 leukemia = system: MOLT-4 leukemia
NCI-H226 lung = system: NCI-H226 lung
NCI-H23 lung = system: NCI-H23 lung

For N#Cc1cnc(Nc2cc(NC[C@H]3CNCCO3)c(C(F)(F)F)cn2)cn1, the GI50 (786-0 renal) was 0.668 µM, the TGI (786-0 renal) was 29 µM and the GI50 (A498 renal) was 0.462 µM. The TGI (A498 renal) was 18 µM, the GI50 (A549 NSCLC) was 20.6 µM and the TGI (A549 NSCLC) was > 100 µM. For the same compound, the GI50 (BT-549 breast) was 5.62 µM, the TGI (BT-549 breast) was 32 µM and the GI50 (CCRF-CEM leukemia) was 0.8 µM. The TGI (CCRF-CEM leukemia) was > 100 µM, the GI50 (COLO 205 colon) was 9.61 µM and the TGI (COLO 205 colon) was 23.6 µM. For the same compound, the GI50 (DU-145 prostate) was 8.07 µM, the TGI (DU-145 prostate) was 40.2 µM and the GI50 (EKVX NSCLC) was 17.5 µM. It also gave a TGI (EKVX NSCLC) of 59.4 µM, a GI50 (HCC-2998 colon) of 6.84 µM and a TGI (HCC-2998 colon) of 30.2 µM. The GI50 (HCT-116 colon) was 23.3 µM, the TGI (HCT-116 colon) was > 100 µM and the GI50 (HCT-15 colon) was 11 µM. For the same compound, the TGI (HCT-15 colon) was > 100 µM, the GI50 (HL-60(TB) leukemia) was 2.15 µM and the TGI (HL-60(TB) leukemia) was 15.4 µM. It also gave a GI50 (HOP-62 NSCLC) of 6.54 µM, a TGI (HOP-62 NSCLC) of 36.8 µM and a GI50 (HOP-92 NSCLC) of 8.95 µM. It also gave a TGI (HOP-92 NSCLC) of 26.6 µM, a GI50 (HS 578T breast) of 0.882 µM and a TGI (HS 578T breast) of 60.3 µM. The GI50 (HT29 colon) was 25.7 µM, the TGI (HT29 colon) was 92 µM and the GI50 (IGROV1 ovarian) was 5.57 µM. The TGI (IGROV1 ovarian) was 70.6 µM, the GI50 (K-562 leukemia) was 3.19 µM and the TGI (K-562 leukemia) was 22.1 µM. It also gave a GI50 (KM12 colon) of 11.4 µM, a TGI (KM12 colon) of 88.4 µM and a GI50 (LOX IMVI melanoma) of 7.15 µM. For the same compound, the TGI (LOX IMVI melanoma) was 24.2 µM, the GI50 (M14 melanoma) was 0.388 µM and the TGI (M14 melanoma) was 16.7 µM. The GI50 (MALME-3M melanoma) was 10.4 µM, the TGI (MALME-3M melanoma) was 27.8 µM and the GI50 (MCF7 breast) was 0.639 µM. The TGI (MCF7 breast) was 23 µM, the GI50 (MDA-MB-231 breast) was 13.1 µM and the TGI (MDA-MB-231 breast) was 47 µM. For the same compound, the GI50 (MDA-MB-435) was 3.56 µM, the TGI (MDA-MB-435) was 27.2 µM and the GI50 (MOLT-4 leukemia) was 3.61 µM. The TGI (MOLT-4 leukemia) was 55.2 µM, the GI50 (NCI-H226 lung) was 22.4 µM and the TGI (NCI-H226 lung) was 85.3 µM. For the same compound, the GI50 (NCI-H23 lung) was 0.791 µM and the TGI (NCI-H23 lung) was 26.8 µM.
